34 molecules from US20060100245A1, “Substituted biphenyl-4-carboxylic acid arylamide analogues” (Neurogen Corporation, priority 2002, published 2006) can be followed below.

As a reminder, the Ki is a dissociation constant, usually derived from enzyme kinetics or from competition with a known ligand.

The target of this assay is T1, human capsaicin receptor (VR1) (Homo sapiens, UniProt Q8NER1).
T1 construct: transfected with the pBK-CMV expression construct encoding the full length human capsaicin receptor; expressed in transfected cells
T1 sequence (Q8NER1 whole entry): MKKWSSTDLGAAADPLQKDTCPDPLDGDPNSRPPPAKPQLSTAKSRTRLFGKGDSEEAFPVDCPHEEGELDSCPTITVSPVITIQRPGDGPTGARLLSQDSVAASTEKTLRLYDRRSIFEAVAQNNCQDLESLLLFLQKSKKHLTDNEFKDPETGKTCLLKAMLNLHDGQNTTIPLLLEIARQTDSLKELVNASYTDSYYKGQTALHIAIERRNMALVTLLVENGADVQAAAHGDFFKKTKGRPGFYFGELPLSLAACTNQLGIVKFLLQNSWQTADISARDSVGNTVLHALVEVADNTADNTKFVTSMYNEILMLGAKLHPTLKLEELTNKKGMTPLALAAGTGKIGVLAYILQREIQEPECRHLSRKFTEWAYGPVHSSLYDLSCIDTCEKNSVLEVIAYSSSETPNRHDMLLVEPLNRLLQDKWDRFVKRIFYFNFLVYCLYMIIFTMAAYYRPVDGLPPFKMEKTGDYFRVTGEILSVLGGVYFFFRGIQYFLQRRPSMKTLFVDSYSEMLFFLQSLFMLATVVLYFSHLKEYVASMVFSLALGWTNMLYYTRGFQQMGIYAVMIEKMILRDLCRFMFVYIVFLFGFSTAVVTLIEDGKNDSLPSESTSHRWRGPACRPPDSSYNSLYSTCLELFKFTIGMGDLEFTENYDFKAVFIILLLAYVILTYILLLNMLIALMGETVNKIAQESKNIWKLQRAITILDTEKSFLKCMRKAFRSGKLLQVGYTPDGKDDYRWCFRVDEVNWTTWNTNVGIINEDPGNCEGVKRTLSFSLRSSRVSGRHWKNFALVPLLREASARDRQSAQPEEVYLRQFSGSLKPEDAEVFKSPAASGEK
Put plainly: Capsaicin receptor binding assay ([3H]RTX competition). As to conditions: read-out: Ki. From the text: This Example illustrates the preparation of VR1-transfected cells and membrane preparations for use in binding assays (Example 5) and functional assays (Example 6).
A cDNA encoding full length human capsaicin receptor (SEQ ID NO: 1, 2 or 3 of U.S. Pat. No. 6,482,611) was subcloned in the plasmid pBK-CMV (Stratagene, La Jolla, Calif.) for recombinant expression in mammalian cells.
Human embryonic kidney (HEK293) cells were transfected with the pBK-CMV expression construct encoding the full length human capsaicin receptor using standard methods. The transfected cells were selected for two weeks in media containing G418 ([…]) to obtain a pool of stably transfected cells. Independent clones were isolated from this pool by limiting dilution to obtain clonal stable cell lines for use in subsequent experiments.
For radioligand binding experiments, cells were seeded in T175 cell culture flasks in media without antibiotics and grown to approximately 90% confluency. The flasks were then washed with PBS and harvested in PBS containing 5 mM EDTA. The cells were pelleted by gentle centrifugation and stored at −80° C. until assayed.
Previously frozen cells were disrupted with the aid of a tissue homogenizer in ice-cold HEPES homogenization buffer (5mM KCl 5, 5.8 mM NaCl, 0.75 mM CaCl2, 2 mM MgCl2, 320 mM sucrose, and 10 mM HEPES pH 7.4). Tissue homogenates were first centrifuged for 10 minutes at 1000×g (4° C.) to remove the nuclear fraction and debris, and then the supernatant from the first centrifugation is further centrifuged for 30 minutes at 35,000×g (4° C.) to obtain a partially purified membrane fraction. Membranes were resuspended in the HEPES homogenization buffer prior to the assay. An aliquot of this membrane homogenate is used to determine protein concentration via the Bradford method (BIO-RAD Protein Assay Kit, #500-0001, BIO-RAD, Hercules, Calif.).
This Example illustrates a representative assay of capsaicin receptor binding that may be used to determine the binding affinity of compounds for the capsaicin (VR1) receptor.
Binding studies with [^3H] Resiniferatoxin (RTX) are carried out essentially as described by Szallasi and Blumberg (1992) J. Pharmacol. Exp. Ter. 262: 883-888. In this protocol, non-specific RTX binding is reduced by adding bovine alpha, acid glycoprotein (100 μg per tube) after the binding reaction has been terminated.
[^3H] RTX (37 Ci/mmol) is synthesized by and obtained from the Chemical Synthesis and Analysis Laboratory, National Cancer Institute-Frederick Cancer Research and Development Center, Frederick, Md. [^3H] RTX may also be obtained from commercial vendors (e.g., Amersham Pharmacia Biotech, Inc.; Piscataway, N.J.).
The membrane homogenate of Example 4 is centrifuged as before and resuspended to a protein concentration of 333 μg/ml in homogenization buffer. Binding assay mixtures are set up on ice and contain [^3H]JRTX (specific activity 2200 mCi/ml), 2 μl non-radioactive test compound, 0.25 mg/ml bovine serum albumin (Cohn fraction V), and 5×10^4−1×10^5 VR1-transfected cells. The final volume is adjusted to 500 μl (for competition binding assays) or 1,000 μl (for saturation binding assays) with the ice-cold HEPES homogenization buffer solution (pH 7.4) described above. Non-specific binding is defined as that occurring in the presence of 1 μM non-radioactive RTX (Alexis Corp.; San Diego, Calif.). For saturation binding, [^3H]RTX is added in the concentration range of […], using 1 to 2 dilutions. Typically 11 concentration points are collected per saturation binding curve.
Competition binding assays are performed in the presence of 60 pM [^3H]RTX and various concentrations of test compound. The binding reactions are initiated by transferring the assay mixtures into a 37° C. water bath and are terminated following a 60 minute incubation period by cooling the tubes on ice.
`CCOc1cccc(-c2ccc(C(=O)Nc3ccc4sc(C)nc4c3)cn2)c1` [Compound 119, 6-(3-Ethoxy-phenyl)-N-(2-smethyl-benzothiazol-5-yl)-nicotinamide]: the Ki is < 1000 nM. As for `CCOc1cccc(-c2ccc(C(=O)Nc3ccc(C)c(F)c3)cn2)c1` [Compound 120, 6-(3-Ethoxyphenyl)-N-(3-fluoro-4-methyl-phenyl)-nicotinamide], the Ki is < 1000 nM. With `CCOc1cccc(-c2ccc(C(=O)Nc3ccc4c(c3)CCC4)cn2)c1` [Compound 124, 6-(3-Ethoxy-phenyl)-N-indan-5-yl-nicotinamide], the Ki was < 1000 nM. For `Cc1nc2cc(NC(=O)c3ccc(-c4cccc(F)c4)nc3)ccc2s1` [Compound 125], the inhibition constant Ki is < 1000 nM. Regarding `COc1cccc(NC(=O)c2ccc(-c3cccc(F)c3)nc2)c1` [Compound 126, 6-(3-Fluoro-phenyl)-N-(3-methoxy-phenyl)-nicotinamide], the Ki is < 1000 nM. Turning to `CC(C)c1ccc(NC(=O)c2ccc(-c3cccc(F)c3)nc2)cc1` [Compound 127, 6-(3-Fluoro-phenyl)-N-(4-isopropyl-phenyl)-nicotinamide], the Ki was < 1000 nM. Under `O=C(Nc1ccc2c(c1)CCC2)c1ccc(-c2cccc(F)c2)nc1` [Compound 129, 6-(3-Fluoro-phenyl)-N-indan-5-yl-nicotinamide] stands < 1000 nM; under `Cc1nc2cc(NC(=O)c3ccc(-c4cccc(C(C)C)c4)nc3)ccc2s1` [Compound 130, 6-(3-Isopropyl-phenyl)-N-(2-methyl-benzothiazol-5-yl)-nicotinamide], < 1000 nM.

For the molecule `COc1cccc(NC(=O)c2ccc(-c3cccc(C(C)C)c3)nc2)c1` [Compound 131, 6-(3-Isopropyl-phenyl)-N-(3-methoxy-phenyl)-nicotinamide], the Ki is < 1000 nM.

On to `O=C(Nc1ccc(C(F)(F)F)cc1)c1ccc(-c2cccc(OC(F)(F)F)c2)nc1` [Compound 135, N-(4-Trifluoromethyl-phenyl)-6-(3-Trifluoromethoxy-phenyl)-nicotinamide], for which the Ki is < 1000 nM. With `CCCCc1ccc(-c2ccc(C(=O)Nc3cccc(OC)c3)cn2)cc1` [Compound 137, 6-(4-Butyl-phenyl)-N-(3-methoxy-phenyl)-nicotinamide], the Ki was < 1000 nM. As to `COc1cccc(NC(=O)c2ccc(-c3ccc(C(C)C)cc3)nc2)c1` [Compound 147, 6-(4-Isopropyl-phenyl)-N-(3-methoxy-phenyl)-nicotinamide], the Ki was < 1000 nM. Under `CCCc1ccc(NC(=O)c2ccc(-c3cc(Cl)ccc3OC)nc2)cc1` [Compound 157, 6-(5-Chloro-2-methoxy-phenyl)-N-(4-propyl-phenyl)-nicotinamide] stands < 1000 nM; under `Cc1nc(-c2ncccc2C(F)(F)F)ccc1C(=O)Nc1ccc(C(F)(F)F)cc1` [Compound 181, 6-Methyl-3′-trifluoromethyl-[2,2′]bipyridinyl-5-carboxylic acid (4-trifluoromethyl-phenyl)-amide], < 1000 nM.

Take `Cc1ccccc1-c1ccc(C(=O)Nc2ccc(C(F)(F)F)cc2)cn1` [Compound 185, 6-o-Tolyl-N-(4-trifluoromethyl-phenyl)-nicotinamide]: the Ki is < 1000 nM. Regarding `COc1cc(NC(=O)c2ccc(-c3ccccc3)cc2)ccc1Cl` [Compound 189, Biphenyl-4-carboxylic acid (4-chloro-3-methoxy-phenyl)-amide], the Ki was < 1000 nM. In the case of `O=C(Nc1ccc2c(c1)OCCO2)c1ccc(-c2ccccc2F)nc1` [Compound 192, N-(2,3-Dihydro-benzo[1,4]dioxin-6-yl)-6-(2-fluoro-phenyl)-nicotinamide], the Ki is < 1000 nM. Take `CCOc1cccc(-c2ccc(C(=O)Nc3ccc4c(c3)OCCO4)cn2)c1` [Compound 194, N-(2,3-Dihydro-benzo[1,4]dioxin-6-yl)-6-(3-ethoxy-phenyl)-nicotinamide]: the Ki was < 1000 nM.

Turning to `CC(C)c1cccc(-c2ccc(C(=O)Nc3ccc4c(c3)OCCO4)cn2)c1` [Compound 196, N-(2,3-Dihydro-benzo[1,4]dioxin-6-yl)-6-(3-isopropyl-phenyl)-nicotinamide], the Ki was < 1000 nM. Turning to `Cc1cccc(-c2ccc(C(=O)Nc3ccc4c(c3)OCCO4)cn2)c1` [Compound 202, N-(2,3-Dihydro-benzo[1,4]dioxin-6-yl)-6-m-tolyl-nicotinamide], the Ki was < 1000 nM. For the molecule `Cc1nc2cc(NC(=O)c3ccc(-c4cccc(OC(F)(F)F)c4)nc3)ccc2s1` [Compound 207, N-(2-Methyl-benzothiazol-5-yl)-6-(3-trifluoromethoxy-phenyl)-nicotinamide], the Ki was < 1000 nM.

In the case of `Cc1cccc(-c2ccc(C(=O)Nc3ccc4sc(C)nc4c3)cn2)c1` [Compound 208, N-(2-Methyl-benzothiazol-5-yl)-6-m-tolyl-nicotinamide], the Ki was < 1000 nM.

As to `Cc1nc2cc(NC(=O)c3ccc(-c4ccccc4)nc3)ccc2s1` [Compound 209, N-(2-Methyl-benzothiazol-5-yl)-6-phenyl-nicotinamide], the inhibitory constant (Ki) was < 1000 nM. `O=C(Nc1ccc(F)c(F)c1)c1ccc(-c2ncccc2F)cc1` [Compound 214, N-(3,4-Difluoro-phenyl)-4-(3-fluoro-pyridin-2-yl)-benzamide]: the Ki was < 1000 nM. On to `O=C(Nc1ccc2c(c1)OCCCO2)c1ccc(-c2ccccc2F)nc1` [Compound 218, N-(3,4-Dihydro-2H-benzo[b][1,4]dioxepin-7-yl)-6-(2-fluoro-phenyl)-nicotinamide], for which the Ki is < 1000 nM. In the case of `O=C(Nc1ccc2c(c1)OCCCO2)c1ccc(-c2cccc(F)c2)nc1` [Compound 220, N-(3,4-Dihydro-2H-benzo[b][1,4]dioxepin-7-yl)-6-(3-fluoro-phenyl)-nicotinamide], the Ki is < 1000 nM.

On to `CC(C)c1cccc(-c2ccc(C(=O)Nc3ccc4c(c3)OCCCO4)cn2)c1` [Compound 221, N-(3,4-Dihydro-2H-benzo[b][1,4]dioxepin-7-yl)-6-(3-isopropyl-phenyl)-nicotinamide], for which the Ki is < 1000 nM. As to `O=C(Nc1ccc2c(c1)OCCCO2)c1ccc(-c2cccc(OC(F)(F)F)c2)nc1` [Compound 223, N-(3,4-Dihydro-2H-benzo[b][1,4]dioxepin-7-yl)-6-(3-trifluoromethoxy-phenyl)-nicotinamide], the Ki is < 1000 nM. In the case of `O=C(Nc1ccc2c(c1)OCCCO2)c1ccc(-c2ccccc2)nc1` [Compound 230, N-(3,4-Dihydro-2H-benzo[b][1,4]dioxepin-7-yl)-6-phenyl-nicotinamide], the Ki was < 1000 nM. `COc1ccc(NC(=O)c2ccc(-c3ccccc3F)nc2)cc1OC` [Compound 232, N-(3,4-Dimethoxy-phenyl)-6-(2-fluoro-phenyl)-nicotinamide]: the Ki was < 1000 nM. For the molecule `Cc1cc(C)cc(-c2ccc(C(=O)Nc3ccc(C)c(C)c3)cn2)c1` [Compound 237, N-(3,4-Dimethyl-phenyl)-6-(3,5-dimethyl-phenyl)-nicotinamide], the Ki is < 1000 nM.

For `CCOc1cccc(-c2ccc(C(=O)Nc3ccc(C)c(C)c3)cn2)c1` [Compound 238, N-(3,4-Dimethyl-phenyl)-6-(3-ethoxyl-phenyl)-nicotinamide], the Ki is < 1000 nM. As for `Cc1ccc(NC(=O)c2ccc(-c3cccc(F)c3)nc2)cc1C` [Compound 239, N-(3,4-Dimethyl-phenyl)-6-(3-fluoro-phenyl)-nicotinamide], the Ki was < 1000 nM. On to `COc1cccc(-c2ccc(C(=O)Nc3ccc(C)c(C)c3)cn2)c1` [Compound 241, N-(3,4-Dimethyl-phenyl)-6-(3-methoxy-phenyl)-nicotinamide], for which the Ki is < 1000 nM.
